According to patent publication US4769364A, “Pyrimidin-5-yl phosphoric acid ester and thionophosphoric acid ester pesticides” (priority 1985, dated 1988):

Experiments:
[1] = test system: Diabrotica balteata larvae; assay: Critical concentration test/soil insects: Diabrotica balteata larvae in the soil; type: in vivo; conditions: 168 h, 2.5 ppm active compound in soil, after a further 7 days, 100% = all test insects killed, read-out: degree of effectiveness
Protocol: (§1) Critical concentration test/soil insects
Test insect: Diabrotica balteata larvae in the soil
(§2) Solvent: 3 parts by weight of acetone
(§3) Emulsifier: 1 part by weight of alkylaryl polyglycol ether.
(§4) To produce a suitable preparation of active compound, 1 part by weight of active compound is mixed with the stated amount of solvent, the stated amount of emulsifier is added and the concentrate is diluted with water to the desired concentration.
(§5) The preparation of active compound is intimately mixed with soil. The concentration of the active compound in the preparation is of practically no importance, only the amount by weight of active compound per unit volume of soil, which is given in ppm (=mg/liter) being decisive. The soil is filled into 0.5 liter pots and these are left to stand at 20° C.
Immediately after setting up the test, 6 pregerminated grains of corn are placed in each pot. After 2 days, the corresponding test insects are introduced into the treated soil. After a further 7 days the degree of effectiveness of the active compound is determined in % by counting the dead and live test insects. The degree of effectiveness is 100% if all the test insects have been killed and is 0% if just as many test insects are still alive as in the case of the untreated control.

Meloidogyne incognita = assay: Critical concentration test/nematodes: Meloidogyne incognita; type: in vivo; conditions: 20 ppm active compound in soil; lettuce, four weeks, 27° C.; 100% = infestation completely avoided
Protocol: Critical concentraion test/nematodes
Test nematode: Meloidogyne incognita
as §2, §3, §4
The preparation of active compound is intimately mixed with soil which is heavily infested with the test nematodes. The concentration of the active compound in the preparation is of practically no importance, only the amount of active compound per unit volume of soil, which is given in ppm, being decisive. The treated soil is filled into pots, lettuce is sown in and the pots are kept at a greenhouse temperature of 27° C.
After four weeks, the lettuce roots are examined for infestation with nematodes (root galls), and the degree of effectiveness of the active compound is determined in %. The degree of effectiveness is 100% if infestation is completely avoided and is 0% if the infestation is just as high as in the case of the control plants in untreated soil which has been infested in the same manner.

[2] = Toxicity to warm-blooded animals, LD50 on rats (oral); conditions: rat, in vivo, oral (stomach tube), dissolved in polyethylene glycol LUTROL
Protocol: Toxicity to warm-blooded animals, LD50 values on rats (oral)
The values were determined in the customary manner. The active compounds were dissolved in polyethylene glycol LUTROL (trademark of BASF AG, Ludwigshafen, Federal Republic of Germany) and the solution was administered to rats with a stomach tube.

Phorbia antiqua maggots = assay: Critical concentration test/soil insects: Phorbia antiqua maggots (in the soil); type: in vivo; conditions: 2.5 ppm active compound in soil; 2 to 7 days; 100% = all test insects killed
Protocol: as §1
Test insect: Phorbia antiqua maggots (in the soil)
as §2
Emulsifier: 1 part by weight alkylaryl polyglycol ether.
as §4
as §5, with “into” for “into 0.5 liter”, “the pots” for “these”, “room temperature.” for “20° C.”
After 24 hours, the test insects are introduced into the treated soil, and after a further 2 to 7 days the degree of effectiveness of the active compound is determined in % by counting the dead and live test insects. The degree of effeciveness is 100% if all the test insects have been killed and is 0% if just as many test insects are still alive as in the case of the untreated control.

[3] = test system: Lucilia cuprina OP res. larvae; assay: Test with Lucilia cuprina OP res. larvae; type: in vivo; conditions: 10 ppm active compound, 24 hours, read-out: destruction
Protocol: Test with Lucilia cuprina OP res. larvae
35 parts by weight of ethylene glycol monoethyl ether
35 parts by weight of nonylphenol polyglycol ether.
To produce a suitable preparation of active compound, three parts by weight of active compound are mixed with seven parts by weight of the abovementioned solvent mixture and the concentrate thus obtained is diluted with water to the particular desired concentration.
About 20 Lucilia cuprina res. larvae are introduced into a test tube which contains approx. 1 cm^2 of horse muscle and 0.5 ml of the preparation of active compound. After 24 hours, the degree of destruction is determined.

Psoroptes ovis = assay: Test with Psoroptes ovis; type: in vivo; conditions: 10 ppm active compound, 24 hours, read-out: destruction
Protocol: 35 parts by weight of ethylene glycol monomethyl ether
35 parts by weight of nonylphenol polyglycol ether
To produce a suitable preparation of active compound, three parts by weight of active compound are mixed with seven parts by weight of the abovementioned solvent mixture and the concentrate thus obtained is diluted with water to the desired concentration.
About 10-25 Psoroptes ovis are introduced into 1 ml of the active compound preparation to be tested, this having been pipetted into tablet nests of a deep-drawn package. After 24 hours, the degree of destruction is determined.

| SMILES | mortality at 2.5 ppm [1] | degree of effectiveness (Meloidogyne incognita) | LD50 [2] | degree of effectiveness (Phorbia antiqua maggots) | mortality at 10 ppm [3] | mortality at 10 ppm (Psoroptes ovis) |
| --- | --- | --- | --- | --- | --- | --- |
| CCOP(=S)(OCC)Oc1cnc(C(C)(C)C)nc1 [Comparison compound (A), reference compound] | 100% | 100% | 1 to 2.5 mg/kg | 100% |  |  |
| CCOP(=S)(OCC(F)(F)F)Oc1cnc(C(C)(C)C)nc1 (stereo not shown) [Example 1, O-ethyl O-(2,2,2-trifluoroethyl) O-(2-tert.-butyl-pyrimidin-5-yl)thionophosphate] | 100% | 95% | 100 to 250 mg/kg | 95% |  |  |
| CCOP(=S)(OCC(F)(F)C(F)F)Oc1cnc(C(C)(C)C)nc1 (stereo not shown) [Example 2] | 100% | 100% | 50 mg/kg | 100% | 100% | 100% |
| CCCOP(=S)(OCC)Oc1cnc(C(C)C)nc1 (stereo not shown) [known compound (B), reference compound] |  | 95% |  | 100% |  |  |
